# Experimental data reported in patent publication US8765763B2, “Substituted piperazines as CGRP antagonists” (Boehringer Ingelheim International GmbH, priority 2009, dated 2014).
# Target: T1, human CGRP receptor (Homo sapiens, UniProt O60894+Q16602)
# T1 construct: SK-N-MC membranes (˜20 μg protein) are incubated for 180 minutes at ambient temperature; endogenous in cells; host or cells: SK-N-MC cells (membranes)
# Test: Binding studies with SK-N-MC cells (expressing the human CGRP receptor), 125I-iodotyrosyl-CGRP displacement on SK-N-MC membranes
# Conditions: 50 pM 125I-iodotyrosyl-CGRP, 180 minutes at ambient temperature
# Protocol: A. Binding Studies with SK-N-MC Cells (Expressing the Human CGRP Receptor)
# SK-N-MC membranes (˜20 μg protein) are incubated for 180 minutes at ambient temperature with 50 pM ^125I-iodotyrosyl-Calcitonin-Gene-Related Peptide and increasing concentrations of the test substances in a total volume of 250 μl (assay buffer: 10 mM tris, 50 mM NaCl, 5 mM MgCl2, 1 mM EDTA, pH=7.4). The incubation is ended by rapid filtration through GF/B-glass fibre filters treated with polyethyleneimine (0.1%) using a cell harvester. The protein-bound radioactivity is measured using a gamma counter. Non-specific binding is defined as the bound radioactivity after the presence of 1 μM BIBN4096BS during incubation.
# The concentration binding curves are analysed using computer-aided non-linear curve fitting.
# T1 sequence (Q16602 23-461): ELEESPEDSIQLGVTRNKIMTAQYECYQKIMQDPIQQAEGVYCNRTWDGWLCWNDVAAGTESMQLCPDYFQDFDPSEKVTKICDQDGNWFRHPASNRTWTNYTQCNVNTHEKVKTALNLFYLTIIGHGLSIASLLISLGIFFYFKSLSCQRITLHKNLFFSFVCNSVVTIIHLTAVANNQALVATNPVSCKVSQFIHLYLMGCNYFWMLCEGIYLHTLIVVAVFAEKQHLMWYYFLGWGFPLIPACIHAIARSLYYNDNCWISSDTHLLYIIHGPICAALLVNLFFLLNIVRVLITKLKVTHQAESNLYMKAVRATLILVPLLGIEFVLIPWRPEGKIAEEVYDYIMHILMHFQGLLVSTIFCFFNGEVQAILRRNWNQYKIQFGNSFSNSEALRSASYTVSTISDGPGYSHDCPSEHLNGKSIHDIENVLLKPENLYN
# T1 sequence (O60894 27-148): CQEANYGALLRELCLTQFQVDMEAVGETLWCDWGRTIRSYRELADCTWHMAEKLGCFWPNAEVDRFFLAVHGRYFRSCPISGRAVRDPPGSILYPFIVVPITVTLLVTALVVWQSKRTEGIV
row,SMILES,Ki
1,"O=C(CN1C(=O)[C@H](CC2CCCCCC2)NCC1c1cc(F)cc(F)c1)Nc1ccc2c(c1)C[C@@]1(C2)C(=O)Nc2ncccc21 (single isomer, unassigned) [Example 13 Diastereomer 1]",0.72 nM
2,"O=C(CN1C(=O)[C@H](CC2CCCCCC2)NCC1c1cc(F)cc(F)c1)Nc1ccc2c(c1)C[C@@]1(C2)C(=O)Nc2ncccc21 (single isomer, unassigned) [Example 13 Diastereomer 2]",0.71 nM
3,"O=C(CN1C(=O)C(C2CCOCC2)NCC1c1cc(F)cc(F)c1)Nc1ccc2c(c1)C[C@@]1(C2)C(=O)Nc2ncccc21 (single isomer, unassigned) [Example 15a]",0.1 nM
4,"O=C(CN1C(=O)C(C2CCOCC2)NCC1c1cc(F)cc(F)c1)Nc1ccc2c(c1)C[C@@]1(C2)C(=O)Nc2ncccc21 (single isomer, unassigned) [Example 15b]",0.39 nM
5,"O=C(CN1C(=O)[C@@H](CC2CCCCCC2)NCC1c1cc(F)cc(F)c1)Nc1ccc2c(c1)C[C@@]1(C2)C(=O)Nc2ncccc21 (single isomer, unassigned) [Example 16a]",5.4 nM
6,"O=C(CN1C(=O)[C@@H](CC2CCCCCC2)NCC1c1cc(F)cc(F)c1)Nc1ccc2c(c1)C[C@@]1(C2)C(=O)Nc2ncccc21 (single isomer, unassigned) [Example 16b]",0.13 nM
7,"O=C(CN1C(=O)C2(COCCOC2)NC[C@H]1c1cc(F)cc(F)c1)Nc1ccc2c(c1)C[C@@]1(C2)C(=O)Nc2ncccc21 [Example 1a, 2-((R)-3-(3,5-difluorophenyl)-5-oxo-8,11-dioxa-1,4-diazaspiro[5.6]dodecan-4-yl)-N-((R)-2′-oxo-1,1′,2′,3-tetrahydrospiro[indene-2,3′-pyrrolo[2,3-b]pyridin]-5-yl)acetamide]",0.03 nM
8,"O=C(CN1C(=O)C2(COCCOC2)NC[C@H]1c1cc(F)cc(F)c1)Nc1ccc2c(c1)C[C@]1(C2)C(=O)Nc2ncccc21 [Example 1b, 2-((R)-3-(3,5-difluorophenyl)-5-oxo-8,11-dioxa-1,4-diazaspiro[5.6]dodecan-4-yl)-N-((S)-2′-oxo-1,1′,2′,3-tetrahydrospiro[inden-2,3′-pyrrolo[2,3-b]pyridin]-5-yl)acetamide]",1.77 nM
9,O=C(CN1C(=O)C2(COCCOC2)NCC1c1cc(F)cc(F)c1)Nc1cc2c(cn1)CC1(C2)C(=O)Nc2ncccc21 (stereo not shown) [Example 2],1.02 nM
10,O=C(CN1C(=O)C(CC2CCCCCC2)NCC1c1cc(F)cc(F)c1)Nc1ccc2c(c1)CC1(C2)C(=O)Nc2ncccc21 (stereo not shown) [Example 3],0.72 nM
11,"O=C(CN1C(=O)C2(CCC3(CCOCC3)CC2)NC[C@H]1c1cc(F)cc(F)c1)Nc1ccc2c(c1)C[C@@]1(C2)C(=O)Nc2ncccc21 [Example 14, 2-((R)-3-(3,5-difluoro-phenyl)-5-oxo-12-oxa-1,4-diaza-dispiro[5.2.5.2]hexadecan-4-yl)-N-((R)-2′-oxo-1,1′,2′,3-tetrahydrospiro[inden-2,3′-pyrrolo[2,3-b]pyridin]-5-yl)acetamide]",0.07 nM
12,"CN1C[C@@H](c2cc(F)cc(F)c2)N(CC(=O)Nc2ccc3c(c2)C[C@@]2(C3)C(=O)Nc3ncccc32)C(=O)C12COCCOC2 [Example 17, 2-((R)-3-(3,5-difluorophenyl)-1-methyl-5-oxo-8,11-dioxa-1,4-diazaspiro[5.6]dodecan-4-yl)-N-((R)-2′-oxo-1,1′,2′,3-tetrahydrospiro[inden-2,3′-pyrrolo[2,3-b]pyridin]-5-yl)acetamide]",0.03 nM
13,"COc1cccc(C2CNC3(COCCOC3)C(=O)N2CC(=O)Nc2ccc3c(c2)C[C@@]2(C3)C(=O)Nc3ncccc32)c1 (stereo partly drawn) [Example 18, 2-(3-(3-methoxyphenyl)-5-oxo-8,11-dioxa-1,4-diazaspiro[5.6]dodecan-4-yl)-N—((R)-2′-oxo-1′,2′,3-tetrahydrospiro[inden-2,3′-pyrrolo[2,3-b]pyridin]-5-yl)acetamide]",0.84 nM
14,"O=C(CN1C(=O)C2(COCCOC2)NC[C@H]1c1cc(F)cc(F)c1)Nc1cc2c(cc1Cl)CC1(C2)C(=O)Nc2ncccc21 (stereo partly drawn) [Example 19, N-(5-chloro-2′-oxo-1,1′,2′,3-tetrahydrospiro[inden-2,3′-pyrrolo[2,3-b]pyridin]-6-yl)-2-((R)-3-(3,5-difluorophenyl)-5-oxo-8,11-dioxa-1,4-diazaspiro[5.6]dodecan-4-yl)acetamide]",1.41 nM
15,"CC(C)(C)OC(=O)N1C[C@@H](c2ccccc2)N(CC(=O)Nc2ccc3c(c2)C[C@@]2(C3)C(=O)Nc3ncccc32)C(=O)C12COCCOC2 [Example 20, (R)-tert-butyl 5-oxo-4-(2-oxo-2-((R)-2′-oxo-1,1′,2′,3-tetrahydrospiro[inden-2,3′-pyrrolo[2,3-b]pyridin]-5-ylamino)ethyl)-3-phenyl-8,11-dioxa-1,4-diazaspiro[5.6]dodecane-1-carboxylate]",0.96 nM
16,"O=C(CN1C(=O)C2(COCCOC2)NC[C@H]1c1ccccc1)Nc1ccc2c(c1)C[C@@]1(C2)C(=O)Nc2ncccc21 [Example 21, N—((R)-2′-oxo-1,1′,2′,3-tetrahydrospiro[inden-2,3′-pyrrolo[2,3-b]pyridin]-5-yl)-2-((R)-5-oxo-3-phenyl-8,11-dioxa-1,4-diazaspiro[5.6]dodecan-4-yl)acetamide]",0.44 nM
17,"O=C(CN1C(=O)C2(COCCOC2)NC[C@H]1c1ccc(F)cc1)Nc1ccc2c(c1)C[C@@]1(C2)C(=O)Nc2ncccc21 [Example 22, 2-((R)-3-(4-fluorophenyl)-5-oxo-8,11-dioxa-1,4-diazaspiro[5.6]dodecan-4-yl)-N-((R)-2′-oxo-1,1′,2′,3-tetrahydrospiro[inden-2,3′-pyrrolo[2,3-b]pyridin]-5-yl)acetamide]",0.11 nM
18,"O=C(CN1C(=O)C2(COCCOC2)NCC1c1cccc(F)c1)Nc1ccc2c(c1)C[C@@]1(C2)C(=O)Nc2ncccc21 (stereo partly drawn) [Example 23, 2-(3-(3-fluorophenyl)-5-oxo-8,11-dioxa-1,4-diazaspiro[5.6]dodecan-4-yl)-N—((R)-2′-oxo-1,1′,2′,3-tetrahydrospiro[inden-2,3′-pyrrolo[2,3-b]pyridin]-5-yl)acetamide]",0.05 nM
19,"O=C(CN1C(=O)C2(COCCOC2)NC[C@H]1c1cc(F)cc(F)c1)Nc1cnc2c(c1)CC1(C2)C(=O)Nc2ncccc21 (stereo partly drawn) [Example 24, 2-((R)-3-(3,5-difluorophenyl)-5-oxo-8,11-dioxa-1,4-diazaspiro[5.6]dodecan-4-yl)-N-(2′-oxo-1′,2′,5,7-tetrahydrospiro[cyclopenta[b]pyridin-6,3′-pyrrolo[2,3-b]pyridin]-3-yl)acetamide]",0.07 nM
